{"source": "paper PMC3711794", "about": "(Molecular cancer therapeutics, 2012)", "key": {"[1]": {"molecular_target": "PBD", "conditions": "read-out: Kd for the PBD; ref [19]; cited from earlier work"}, "[2]": {"tested_on": "HeLa-H2B-GFP cells", "test": "Aberrant prometaphase/metaphase analysis after QQ transfection", "format": "cell-based", "conditions": "for aberrant prometaphase/metaphase cells: controls <10%"}, "[3]": {"tested_on": "PLK1", "conditions": "ref [38]; cited from earlier work"}, "[4]": {"molecular_target": "T1, PLK3 PBD (335–646) (Homo sapiens, UniProt Q9H4B4)", "T1 sequence (Q9H4B4 335-646)": "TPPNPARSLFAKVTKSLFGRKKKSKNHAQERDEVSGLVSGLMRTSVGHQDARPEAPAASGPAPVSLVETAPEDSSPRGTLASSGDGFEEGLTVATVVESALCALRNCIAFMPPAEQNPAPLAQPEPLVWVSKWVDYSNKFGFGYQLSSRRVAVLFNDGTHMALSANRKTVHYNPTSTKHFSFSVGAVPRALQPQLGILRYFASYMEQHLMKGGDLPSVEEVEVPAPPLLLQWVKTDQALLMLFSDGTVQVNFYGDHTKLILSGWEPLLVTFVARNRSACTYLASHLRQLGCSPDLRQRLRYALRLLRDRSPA", "test": "Fluorescence polarization competitive binding assay, PLK3 PBD"}, "[5]": {"tested_on": "HeLa cells", "test": "Annexin V – Propidium Iodide flow cytometry cell death assay", "format": "cell-based"}, "[6]": {"tested_on": "HeLa-H2B-GFP cells", "test": "Immunofluorescence of PLK1 centrosomal localization after QQ transfection", "conditions": "for fluorescence intensity of PLK1 staining at centrosomes: PBS control 51.2, QQ control 49.2"}}, "note": "Non-standard residues stand in square brackets, D forms with d. Residues, ends and D or L forms follow the SMILES beside them. pT = C[C@@H](OP(=O)(O)O)[C@H](N)C(=O)O"}
{"molecule": "LHSpTAI", "values": [{"measurement": "Kd", "setting": "[1]", "value": 0.25, "unit": "µM"}]}
{"molecule": "O=c1c(O)cccc2cc(O)c(O)c(O)c12", "note": "[PPG, purpurogalin, reference compound]", "values": [{"measurement": "induction of aberrant mitoses in words", "setting": "[2]; data not shown", "value": "very few aberrant mitoses"}, {"measurement": "inhibition of PLK1 catalytic activity in vitro", "setting": "[3]", "value": "neither PPG nor Poloxin inhibit PLK1 catalytic activity"}]}
{"molecule": "CC(=O)N1CCC[C@H]1C(=O)N[C@@H](CC(C)C)C(=O)N[C@@H](Cc1c[nH]cn1)C(=O)N[C@@H](CO)C(=O)N[C@H](C(=O)N[C@@H](C)C(=O)O)[C@@H](C)OP(=O)(O)O", "note": "[compound 5743, Ac-PLHS[pT]A] (Ac-PLHS[pT]A-OH)", "values": [{"measurement": "inhibition at 600 µM", "setting": "[4]; read-out: inhibition of PLK3 PBD binding", "value": 31, "unit": "%"}, {"measurement": "aberrant prometaphase/metaphase cells", "setting": "[2]; 10 µM dose", "value": 32, "unit": "%"}, {"measurement": "aberrant prometaphase/metaphase cells", "setting": "[2]; 30 µM dose", "value": 40.3, "unit": "%"}, {"measurement": "Aberrant mitoses, @ 24hr, 30 µM", "setting": "[2]; HeLa-H2B-GFP cells, QQ transfected, 24 hr, 30 µM", "value": 40.3, "unit": "%"}, {"measurement": "decrease in percentage of viable cells", "setting": "[5]; 30 µM, 24 hours post-treatment", "value": 30, "unit": "%"}, {"measurement": "Apoptosis @ 24hr, 30 µM", "setting": "[5]; HeLa cells, QQ transfected, 24 hr", "value": 34.0, "unit": "%"}, {"measurement": "statistical significance of decrease in PLK1 centrosomal fluorescent intensity", "setting": "[6]", "value": "Statistically significant decreases"}, {"measurement": "fluorescence intensity of PLK1 staining at centrosomes", "setting": "[6]; 30 μM", "value": "33 arbitrary fluorescence units"}]}
{"molecule": "CC(C)C[C@H](NC(=O)[C@@H]1CCCN1C(=O)CN)C(=O)N[C@@H](C)C(=O)N[C@H](C(=O)N[C@@H](CO)C(=O)N[C@H](C(=O)N1CCC[C@H]1C(=O)N[C@@H](CCCCN)C(=O)N[C@@H](CC(N)=O)C(=O)NCC(=O)O)[C@@H](C)OP(=O)(O)O)[C@@H](C)O", "note": "[PLK3 ligand, GPLATS[pT]PKNG, reference compound] (H-GPLATS[pT]PKNG-OH)", "values": [{"measurement": "IC50", "setting": "[4]", "value": 6.5, "unit": "µM"}]}
{"molecule": "CC(C)C[C@H](NC(=O)CNC(=O)[C@H](CC(N)=O)NC(=O)[C@@H]1CCCN1C(=O)[C@@H](NC(=O)[C@H](CO)NC(=O)[C@H](CS)NC(=O)[C@H](CC(C)C)NC(=O)[C@@H](N)CC(C)C)[C@@H](C)OP(=O)(O)O)C(=O)O", "note": "[compound 292, LLCS[pT]PNGL] (H-LLCS[pT]PNGL-OH)", "values": [{"measurement": "aberrant prometaphase/metaphase cells", "setting": "[2]; 30 µM dose", "value": 25, "unit": "%"}, {"measurement": "induction of apoptosis in words", "setting": "[5]; 30 µM, relative to the controls", "value": "did not induce significant levels of apoptosis"}, {"measurement": "fluorescence intensity of PLK1 staining at centrosomes", "setting": "[6]; concentration not given", "value": "45 arbitrary fluorescence units"}]}
